Measured values as given in ChEMBL document CHEMBL1201862, “PubChem BioAssay data set” (2004).
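1) Cells in 96-well plates. 2) Compound, 48 h, 5 concentrations. 3) Linear interpolation between surrounding doses. 4) Unreached endpoint = highest concentration. At the GI50, growth is halved.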 Activity calls are given as the source filed them. No stated cut-off is given here; in the data, active = GI50 up to about 1.1 µM and inactive = higher.

How the values were obtained:
Experiment in all cases: NCI tumour cell line growth inhibition, 48 h
A498 = system: A498
ACHN = system: ACHN
HCC 2998 = system: HCC 2998
HL-60 = system: HL-60
HOP-62 = system: HOP-62
HT-29 = system: HT-29
LOX IMVI = system: LOX IMVI
M14 = system: M14
Malme-3M = system: Malme-3M
NCI-H226 = system: NCI-H226
PC-3 = system: PC-3
SF-268 = system: SF-268
SF-539 = system: SF-539
SK-MEL-5 = system: SK-MEL-5
SK-OV-3 = system: SK-OV-3
SNB-19 = system: SNB-19
UACC-257 = system: UACC-257
UACC-62 = system: UACC-62
SK-MEL-28 = system: SK-MEL-28
MDA-N = system: MDA-N

Measured: GI50

Cc1[nH]nc(C(=O)N/N=C/c2cccs2)c1/N=N\N(C)C
inactive: A498 23.4 µM | ACHN 2.96 µM | HCC 2998 5.06 µM | HL-60 1.99 µM | HOP-62 17 µM | HT-29 3.31 µM | LOX IMVI 4.3 µM | M14 24.7 µM | Malme-3M 21.4 µM | NCI-H226 23.1 µM | PC-3 20.1 µM | SF-268 9.4 µM | SF-539 13.3 µM | SK-MEL-5 19.6 µM | SK-OV-3 19.8 µM | SNB-19 8.38 µM | UACC-257 26.7 µM | UACC-62 14 µM

CC(C)(C)OC(=O)N(CCCN)CCCCN(CCCN)C(=O)OC(C)(C)C
inactive: A498 > 100 µM | ACHN > 100 µM | HCC 2998 > 100 µM | HL-60 > 100 µM | HOP-62 > 100 µM | HT-29 > 100 µM | LOX IMVI > 100 µM | M14 > 100 µM | NCI-H226 > 100 µM | PC-3 > 100 µM | SF-268 > 100 µM | SF-539 > 100 µM | SK-MEL-28 > 100 µM | SK-MEL-5 > 100 µM | SK-OV-3 > 100 µM | SNB-19 > 100 µM | UACC-257 > 100 µM | UACC-62 > 100 µM

S=C1CC(c2ccccc2)Sc2ccccc2N1 (configuration not stated)
inactive: ACHN 69 µM | HL-60 > 100 µM | HOP-62 22.8 µM | HT-29 > 100 µM | LOX IMVI > 100 µM | M14 45 µM | MDA-N 54 µM | Malme-3M 67.1 µM | NCI-H226 > 100 µM | PC-3 6.85 µM | SF-268 38.8 µM | SK-MEL-28 51.4 µM | SK-MEL-5 66.8 µM | SK-OV-3 41.6 µM | SNB-19 35.6 µM | UACC-257 > 100 µM | UACC-62 51.1 µM

CC(C)=CCC[C@@H](C)c1c2nc3ccccc3sc-2c(C)c(=O)c1O
inactive: A498 9.84 µM | ACHN 2.65 µM | HCC 2998 9.66 µM | HL-60 1.51 µM | HOP-62 4.36 µM | HT-29 2.79 µM | LOX IMVI 4.94 µM | M14 4.75 µM | Malme-3M 2.93 µM | NCI-H226 3.74 µM | PC-3 8.34 µM | SF-268 3.99 µM | SF-539 3.01 µM | SK-MEL-28 14.6 µM | SK-MEL-5 3.1 µM | SK-OV-3 7.74 µM | SNB-19 38.5 µM | UACC-257 14.3 µM | UACC-62 4.99 µM
